Measurements taken from ChEMBL document CHEMBL1127109, “Thiol and hydroxamic acid containing inhibitors of endothelin converting enzyme” (Bioorg Med Chem Lett, 1993).
Where a SMILES comes first, the peptide text is derived from it. The star is where a group is joined. Cbz = O=C(OCc1ccccc1)*

What was measured:
[1] = molecular target: T1, Endothelin-converting enzyme 1 (Homo sapiens) (UniProt P42892); assay: Compound was tested in vitro for percent inhibition of a putative Endothelin-converting enzyme at 100 uM partially purified from rabbit lung membrane; type: tissue-based; conditions: Oryctolagus cuniculus, target entry is the homologue from another species
T1 sequence (whole entry): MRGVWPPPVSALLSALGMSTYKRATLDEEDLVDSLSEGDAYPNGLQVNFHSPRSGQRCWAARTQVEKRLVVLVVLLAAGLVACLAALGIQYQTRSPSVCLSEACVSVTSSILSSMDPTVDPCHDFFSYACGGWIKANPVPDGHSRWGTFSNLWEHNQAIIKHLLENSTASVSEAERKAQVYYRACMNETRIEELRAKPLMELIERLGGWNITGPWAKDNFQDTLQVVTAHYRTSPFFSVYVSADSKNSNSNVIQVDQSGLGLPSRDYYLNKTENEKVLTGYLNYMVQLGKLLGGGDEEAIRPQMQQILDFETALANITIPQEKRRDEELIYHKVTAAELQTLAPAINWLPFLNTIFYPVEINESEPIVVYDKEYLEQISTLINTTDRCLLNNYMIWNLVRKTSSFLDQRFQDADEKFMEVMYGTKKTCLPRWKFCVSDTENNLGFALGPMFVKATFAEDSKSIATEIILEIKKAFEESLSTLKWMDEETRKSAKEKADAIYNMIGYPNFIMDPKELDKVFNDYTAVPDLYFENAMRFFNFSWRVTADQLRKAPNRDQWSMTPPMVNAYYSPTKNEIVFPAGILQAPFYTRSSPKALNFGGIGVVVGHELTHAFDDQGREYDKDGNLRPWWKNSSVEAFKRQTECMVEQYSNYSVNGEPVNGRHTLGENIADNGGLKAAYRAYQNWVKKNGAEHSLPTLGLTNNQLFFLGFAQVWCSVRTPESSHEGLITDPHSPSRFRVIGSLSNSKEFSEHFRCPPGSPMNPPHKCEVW

[2] = molecular target: T2, Thermolysin (Bacillus thermoproteolyticus, UniProt P00800); assay: Compound was tested in vitro for inhibitory activity against thermolysin
T2 sequence (P00800 whole entry): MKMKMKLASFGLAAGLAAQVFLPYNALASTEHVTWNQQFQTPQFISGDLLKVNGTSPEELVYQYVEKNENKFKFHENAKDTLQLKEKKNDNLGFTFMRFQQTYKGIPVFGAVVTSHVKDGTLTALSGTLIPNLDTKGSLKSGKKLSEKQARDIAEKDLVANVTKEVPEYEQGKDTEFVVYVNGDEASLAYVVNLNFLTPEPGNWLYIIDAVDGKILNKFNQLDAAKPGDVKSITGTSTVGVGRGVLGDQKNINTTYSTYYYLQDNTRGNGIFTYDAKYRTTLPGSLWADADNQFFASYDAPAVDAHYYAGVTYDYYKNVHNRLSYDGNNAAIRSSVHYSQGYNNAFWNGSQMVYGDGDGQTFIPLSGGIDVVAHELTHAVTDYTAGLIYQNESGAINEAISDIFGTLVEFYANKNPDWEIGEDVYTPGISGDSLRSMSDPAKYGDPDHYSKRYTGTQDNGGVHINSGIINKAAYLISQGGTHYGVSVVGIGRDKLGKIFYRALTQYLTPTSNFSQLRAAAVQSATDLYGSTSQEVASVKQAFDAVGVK

SMILES | inhibition [1] | IC50 [2]
COC(=O)[C@H](CC(C)C)NC(=O)[C@H](CS)NC(=O)OCc1ccccc1 | 89% | –
COC(=O)[C@H](Cc1c[nH]c2ccccc12)NC(=O)[C@H](CS)NC(=O)OCc1ccccc1 (Cbz-Cys-Trp-OMe) | 93% | –
CC(C)C[C@H](C(=O)NO)C(=O)N[C@@H](C)C(=O)NCC(N)=O | – | 64 nM
O=C(N[C@@H](CS)C(=O)N[C@@H](Cc1c[nH]c2ccccc12)C(=O)O)OCc1ccccc1 (Cbz-Cys-Trp-OH) | 90% | –

Second part, the compound after the results:

inhibition [1] | IC50 [2] | SMILES
75% | – | CC(C)C[C@H](NC(=O)[C@H](CS)NC(=O)OCc1ccccc1)C(=O)N[C@@H](Cc1c[nH]c2ccccc12)C(=O)O (Cbz-Cys-Leu-Trp-OH)
83% | – | COC(=O)[C@H](Cc1c[nH]c2ccccc12)NC(=O)[C@H](CC(C)C)NC(=O)[C@H](CS)NC(=O)OCc1ccccc1 (Cbz-Cys-Leu-Trp-OMe)
